From US20030113409A1, “Tellurium containing nutrient formulation and process for enhancing the cumulative weight gain or feed efficacy in poultry” (priority 2001, published 2003)

Assays:
[1] = Growth performance of three day old chicks fed diet with AS101 (body weight, feed intake, feed efficacy, liver weight, survival, histology); settings: for increase in BW over Group 1: versus standard diet without selenium
Method: Each chick included in the study weighed exactly 80 g. via accurate electronic scale and each chick was marked. There were five different treatment groups, each group comprising ten chicks in four repetitions. The five groups of animals were tested as follows: Group 1 received a standard feeding diet without selenium; Group 2 received the standard feeding diet supplemented with 500 mg/metric ton of selenium; Group 3 received the same diet as Group 2 with the addition of AS101 at a concentration of 500 mg/metric ton; Group 4 received the same diet as Group 2 with the addition of AS101 at a concentration of 2,500 mg/metric ton; Group 5 received the same diet as Group 2 with the addition of AS101 at a concentration of 12,500 mg/ton. All the experiments were randomized and open. The results of each group represent the mean of 40 chicks. For growth period days 3-24, the performance of groups of three day old birds, fed AS101 concentrations of 500 mg/metric ton, 2,500 mg/metric ton or 12,500 mg/metric ton were compared to groups of control birds fed either a standard feeding diet without selenium or a standard feeding diet with an addition of […] selenium. Body weight (BW) was measured after 24 days. At the end of 24 days, the animals were examined for gross signs of toxicity. A gross visual examination was carried out. The liver of each chick was extracted and weighed.

[2] = Phase I and II, cancer patients; cited from earlier work
[3] = intraruminal pellets selenium, dairy heifers; cited from earlier work
[4] = Treatment 3: AS101 500 mg/metric ton
[5] = Treatment 4: AS101 2,500 mg/metric ton
[6] = Treatment 4: AS101 2,500 mg/metric ton, control = Treatment 2
[7] = Treatment 5: AS101 12,500 mg/ton
[8] = Treatment 5: AS101 12,500 mg/ton, control = Treatment 2
[9] = Treatment 2: selenium supplemented diet, no AS101

Cl[TeH]1(Cl)(Cl)OCCO1 [AS101, ammonium trichloro(dioxyethylene-O,O′)tellurate]
change in BW (significance) ([1]; 12.5 g/ton AS101): significant increase in BW | BW increase ([1]; AS101 500 mg/ton added to mixture that includes selenium): 1.7% | BW increase ([1]; AS101 2,500 mg/ton added to mixture that includes selenium): 2.3% | BW increase ([1]; AS101 12,500 mg/ton added to mixture that includes selenium): 5% | increase in BW over Group 1 ([1]; Group 5, highest level of tellurium): 5.4% | FEED EFFICACY [1, 4]: 0.731 g/g | FEED INTAKE [1, 4]: 1382 g | FE, % OF CONTROL ([1]; Treatment 3: AS101 500 mg/metric ton, control = Treatment 2): 103.5% | BW, % OF CONTROL ([1]; Treatment 3: AS101 500 mg/metric ton, control = Treatment 2 (selenium diet)): 101.7% | BW-24D ([1]; Treatment 3: standard diet + selenium 500 mg/metric ton + AS101 500 mg/metric ton, mean of 40 chicks): 1090 g | FEED EFFICACY [1, 5]: 0.74 g/g | FEED INTAKE [1, 5]: 1375 g | BW, % OF CONTROL [1, 6]: 102.3% | FE, % OF CONTROL [1, 6]: 104.8% | BW-24D ([1]; Treatment 4: standard diet + selenium + AS101 2,500 mg/metric ton, mean of 40 chicks): 1097 g | FEED EFFICACY [1, 7]: 0.738 g/g | FEED INTAKE [1, 7]: 1417 g | BW, % OF CONTROL [1, 8]: 105% | FE, % OF CONTROL [1, 8]: 104.5% | BW-24D ([1]; Treatment 5: standard diet + selenium + AS101 12,500 mg/ton, mean of 40 chicks): 1126 g | survival rate ([1]; all groups, no mortalities): 100% | increase of growth rate of young chicks ([1]; diet with at least 0.5 gm selenium per metric ton + 12.5 gm tellurium compound per metric ton, by day 21): up to 5% | food intake altered by feeding with AS101 ([1]; in vivo): not altered | histological studies ([1]; in vivo): No pathological changes were observed | toxicity in clinical trials [2]: non-toxic

[Se] [selenium, reference compound]
increase in BW over Group 1 ([1]; Group 2, addition of 300 mg/ton of selenium): 0.4% | FEED EFFICACY [1, 9]: 0.706 g/g | FEED INTAKE [1, 9]: 1405 g | LIVER, % OF BW [1, 9]: 2.32% | BW-24D ([1]; Treatment 2: standard diet supplemented with 500 mg/metric ton of selenium, no AS101): 1072 g | weight gains over control [3]: 0.11 to 0.12 kg/day
